Measured values taken from paper PMC8923172 (Antimicrobial Agents and Chemotherapy, 2022).
Marks after values point to notes of the source that are not given here. Residues, ends and D or L forms follow the SMILES beside them.

Assay: Hematology of rats at the end of treatment
Assay type: in vivo, Sprague-Dawley rats
Conditions: median (IQR)

## CC[C@H](C)[C@@H]1NC(=O)[C@@H]2CSSC[C@H](NC(=O)[C@H](CCCNC(=N)N)NC(=O)[C@@H]3CSSC[C@H](NC1=O)C(=O)N[C@@H]([C@@H](C)O)C(=O)N[C@@H](CCCNC(=N)N)C(=O)NCC(=O)N[C@@H](Cc1ccccc1)C(=O)N3)C(=O)N[C@@H](CC(C)C)C(=O)N[C@H]1CSSC[C@H](NC(=O)[C@H](C(C)C)NC(=O)CNC(=O)[C@H](CCCNC(=N)N)NC(=O)[C@H](CCCNC(=N)N)NC1=O)C(=O)N[C@@H](CCCNC(=N)N)C(=O)N2 [RTD-1, Rhesus theta (θ) defensin-1] (HELM PEPTIDE1{G.F.C.R.C.L.C.R.R.G.V.C.R.C.I.C.T.R}$PEPTIDE1,PEPTIDE1,3:R3-16:R3|PEPTIDE1,PEPTIDE1,5:R3-14:R3|PEPTIDE1,PEPTIDE1,7:R3-12:R3|PEPTIDE1,PEPTIDE1,1:R1-18:R2$$$V2.0)
female, 5 mg/kg/day
  Basophils, absolute: 0.02 (0.02) 10^3/mm^3
  Eosinophils, absolute: 0.30 (0.23) 10^3/mm^3
  HDW: 2.37 (0.16) g/dL
  Hematocrits: 40.50 (1.90) %
  Hemoglobin: 13.50 (1.00) g/dL
  LUC, absolute: 0.02 (0.03) 10^3/mm^3
  Lymphocytes, absolute: 4.78 (3.21) 10^3/mm^3
  MCH: 19.10 (1.00) pg
  MCHC: 33.40 (0.40) g/dL
  MCV: 57.90 (2.80) fL
  Monocytes, absolute: 0.17 (0.08) 10^3/mm^3
  Neutrophils, absolute: 1.33 (0.99) 10^3/mm^3
  Platelets: 801.00 (306.00) 10^3/mm^3
  RBC: 6.88 (0.33) 10^6/mm^3
  RDW: 12.70 (0.80) %
  Reticulocytes, absolute: 256.70 (53.50) 10^3/mm^3
  WBC: 6.50 (3.50) 10^3/mm^3
female, 10 mg/kg/day
  Basophils, absolute: 0.04 (0.02) 10^3/mm^3
  Eosinophils, absolute: 0.33 (0.14) 10^3/mm^3
  HDW: 2.45 (0.16) g/dL
  Hematocrits: 41.15 (1.83) %
  Hemoglobin: 13.70 (0.38) g/dL
  LUC, absolute: 0.04 (0.03) 10^3/mm^3
  Lymphocytes, absolute: 7.13 (1.76)^c 10^3/mm^3
  MCH: 18.95 (0.45) pg
  MCHC: 33.25 (0.35) g/dL
  MCV: 57.30 (2.43) fL
  Monocytes, absolute: 0.39 (0.13)^c^,^d 10^3/mm^3
  Neutrophils, absolute: 2.18 (1.30) 10^3/mm^3
  Platelets: 939.00 (314.75) 10^3/mm^3
  RBC: 7.21 (0.40) 10^6/mm^3
  RDW: 12.95 (0.40) %
  Reticulocytes, absolute: 277.25 (42.00) 10^3/mm^3
  WBC: 10.75 (3.68)^c 10^3/mm^3
female, 20 mg/kg, day 2
  Basophils, absolute: 0.06 (0.06) 10^3/mm^3
  Eosinophils, absolute: 0.13 (0.06)^c^,^e 10^3/mm^3
  HDW: 2.37 (0.32) g/dL
  Hematocrits: 46.85 (14.28) %
  Hemoglobin: 15.15 (4.58) g/dL
  LUC, absolute: 0.05 (0.03) 10^3/mm^3
  Lymphocytes, absolute: 5.56 (2.93) 10^3/mm^3
  MCH: 19.60 (0.88) pg
  MCHC: 32.30 (0.30)^d^,^e g/dL
  MCV: 60.95 (2.18)^e fL
  Monocytes, absolute: 0.33 (0.26)^c 10^3/mm^3
  Neutrophils, absolute: 2.55 (2.72) 10^3/mm^3
  Platelets: 603.50 (524.00)^e 10^3/mm^3
  RBC: 7.63 (2.19) 10^6/mm^3
  RDW: 12.20 (0.57)^e %
  Reticulocytes, absolute: 325.95 (60.38)^c^,^d 10^3/mm^3
  WBC: 8.15 (5.70) 10^3/mm^3
male, 5 mg/kg/day
  Basophils, absolute: 0.03 (0.02) 10^3/mm^3
  Eosinophils, absolute: 0.37 (0.10) 10^3/mm^3
  HDW: 2.30 (0.09) g/dL
  Hematocrits: 43.75 (1.73) %
  Hemoglobin: 14.10 (0.98) g/dL
  LUC, absolute: 0.03 (0.02) 10^3/mm^3
  Lymphocytes, absolute: 6.03 (1.81) 10^3/mm^3
  MCH: 19.95 (1.35) pg
  MCHC: 32.10 (0.33) g/dL
  MCV: 61.75 (2.90) fL
  Monocytes, absolute: 0.22 (0.20) 10^3/mm^3
  Neutrophils, absolute: 2.04 (0.96) 10^3/mm^3
  Platelets: 1,052.00 (145.00) 10^3/mm^3
  RBC: 7.06 (0.23) 10^6/mm^3
  RDW: 13.95 (1.15) %
  Reticulocytes, absolute: 359.65 (38.03) 10^3/mm^3
  WBC: 8.40 (2.53) 10^3/mm^3
male, 10 mg/kg/day
  Basophils, absolute: 0.03 (0.02) 10^3/mm^3
  Eosinophils, absolute: 0.31 (0.24) 10^3/mm^3
  HDW: 2.20 (0.20) g/dL
  Hematocrits: 43.65 (1.20) %
  Hemoglobin: 14.20 (0.65) g/dL
  LUC, absolute: 0.03 (0.02) 10^3/mm^3
  Lymphocytes, absolute: 6.69 (2.92) 10^3/mm^3
  MCH: 20.20 (0.55) pg
  MCHC: 32.35 (0.72) g/dL
  MCV: 62.60 (3.05) fL
  Monocytes, absolute: 0.28 (0.10) 10^3/mm^3
  Neutrophils, absolute: 1.85 (0.61) 10^3/mm^3
  Platelets: 1,086.00 (192.25) 10^3/mm^3
  RBC: 7.06 (0.38) 10^6/mm^3
  RDW: 13.10 (1.13) %
  Reticulocytes, absolute: 314.20 (33.35)^c 10^3/mm^3
  WBC: 10.05 (3.28) 10^3/mm^3
male, 20 mg/kg, day 2
  Basophils, absolute: 0.03 (0.03) 10^3/mm^3
  Eosinophils, absolute: 0.15 (0.06)^c^,^d^,^e 10^3/mm^3
  HDW: 2.44 (0.25)^e g/dL
  Hematocrits: 37.30 (3.70)^d^,^e %
  Hemoglobin: 12.10 (1.00)^d^,^e g/dL
  LUC, absolute: 0.07 (0.05)^c^,^d^,^e 10^3/mm^3
  Lymphocytes, absolute: 4.24 (1.79)^d^,^e 10^3/mm^3
  MCH: 20.00 (0.60) pg
  MCHC: 31.80 (0.50) g/dL
  MCV: 62.50 (2.10) fL
  Monocytes, absolute: 0.93 (0.29)^c^,^d^,^e 10^3/mm^3
  Neutrophils, absolute: 8.40 (3.42)^c^,^d^,^e 10^3/mm^3
  Platelets: 728.00 (86.00)^c^,^d^,^e 10^3/mm^3
  RBC: 6.04 (0.47)^d^,^e 10^6/mm^3
  RDW: 14.30 (1.20) %
  Reticulocytes, absolute: 373.30 (106.50)^e 10^3/mm^3
  WBC: 13.70 (4.90)^c^,^d 10^3/mm^3
